# Experimental data as given in US20230382924A1, “MODULATORS OF CYSTIC FIBROSIS TRANSMEMBRANE CONDUCTANCE REGULATOR” (VERTEX PHARMACEUTICALS INCORPORATED, priority 2020, published 2023).
# Read-outs that look alike come from different tables or passages of the source.
# How the values were obtained:
# [1] = amide bond, 13-membered ring
# [2] = target: CFTR (Homo sapiens, UniProt P13569); experiment: Membrane Potential Dye, Enteroid Assay A; type: cell-based; conditions: for EC50: read-out: Ent. A EC50
# Sequence of CFTR (P13569 with tags, fused parts or gaps DEL508-508): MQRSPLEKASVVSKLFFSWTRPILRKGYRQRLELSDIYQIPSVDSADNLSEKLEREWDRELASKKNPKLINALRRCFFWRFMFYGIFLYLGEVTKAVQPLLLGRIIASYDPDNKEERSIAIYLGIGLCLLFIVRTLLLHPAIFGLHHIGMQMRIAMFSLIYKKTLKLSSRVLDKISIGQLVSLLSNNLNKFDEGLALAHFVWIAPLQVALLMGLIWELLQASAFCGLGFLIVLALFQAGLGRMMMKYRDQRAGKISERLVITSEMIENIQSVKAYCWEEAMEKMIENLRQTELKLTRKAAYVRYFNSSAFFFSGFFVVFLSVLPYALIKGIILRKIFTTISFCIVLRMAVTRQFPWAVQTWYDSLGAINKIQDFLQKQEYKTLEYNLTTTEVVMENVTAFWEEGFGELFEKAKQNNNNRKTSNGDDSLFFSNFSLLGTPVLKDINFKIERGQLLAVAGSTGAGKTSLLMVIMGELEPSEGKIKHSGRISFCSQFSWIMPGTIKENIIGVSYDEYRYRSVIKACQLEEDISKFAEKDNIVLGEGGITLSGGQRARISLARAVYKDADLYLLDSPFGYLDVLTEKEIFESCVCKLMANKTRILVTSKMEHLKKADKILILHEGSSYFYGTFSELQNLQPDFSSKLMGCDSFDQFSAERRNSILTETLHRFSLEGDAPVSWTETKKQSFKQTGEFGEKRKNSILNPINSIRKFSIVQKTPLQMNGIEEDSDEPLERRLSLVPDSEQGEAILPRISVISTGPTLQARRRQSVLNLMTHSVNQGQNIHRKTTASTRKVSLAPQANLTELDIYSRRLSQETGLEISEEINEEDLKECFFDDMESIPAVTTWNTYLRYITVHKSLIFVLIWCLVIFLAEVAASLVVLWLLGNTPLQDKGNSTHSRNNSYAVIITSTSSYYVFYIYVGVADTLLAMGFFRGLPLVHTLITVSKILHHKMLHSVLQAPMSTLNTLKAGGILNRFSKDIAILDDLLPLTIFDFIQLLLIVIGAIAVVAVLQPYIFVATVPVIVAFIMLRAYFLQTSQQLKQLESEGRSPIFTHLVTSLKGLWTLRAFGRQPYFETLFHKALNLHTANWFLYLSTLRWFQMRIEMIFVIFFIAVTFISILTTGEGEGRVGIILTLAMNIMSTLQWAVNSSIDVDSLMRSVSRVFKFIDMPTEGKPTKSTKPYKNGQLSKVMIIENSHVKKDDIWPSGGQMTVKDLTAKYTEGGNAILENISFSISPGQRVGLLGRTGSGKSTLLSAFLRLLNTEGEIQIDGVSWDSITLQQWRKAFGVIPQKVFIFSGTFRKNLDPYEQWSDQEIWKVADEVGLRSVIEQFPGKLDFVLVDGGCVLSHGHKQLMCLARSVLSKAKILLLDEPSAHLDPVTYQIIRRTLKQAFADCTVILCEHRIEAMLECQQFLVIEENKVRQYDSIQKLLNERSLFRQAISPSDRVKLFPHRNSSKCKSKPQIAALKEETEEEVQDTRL
# Outline: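 Signal is reported as % Activity relative to a triple CFTR modulator control (3 μM + 3 μM + 300 nM acute). Read-out: membrane potential fluorescence (20 μM methyl oxonol) monitored for 15 min after chloride-free stimulation. Dye loading took 25 min at room temperature in Bath 1 buffer containing CaCC blockers.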
smiles,measurement,setting,value
"Cc1cccc(C)c1-c1cc2nc(n1)NS(=O)(=O)c1cccc(c1)C(=O)NCC(C1CCOCC1)O2 (centres unmarked) [Compound 34, 6-(2,6-Dimethylphenyl)-2,2-dioxo-10-tetrahydropyran-4-yl-9-oxa-2λ^6-thia-3,5,12,19-tetrazatricyclo[12.3.1.14,8]nonadeca-1(18),4(19),5,7,14,16-hexaen-13-one]","ring closure, yield after HPLC","[1]; from Cc1cccc(C)c1-c1cc(OC(CN)C2CCOCC2)nc(NS(=O)(=O)c2cccc(C(=O)O)c2)n1, HATU/DIEA, DMF, 66.2 mM, 25.0 °C, 0.25 h",25%
same,Ent. A Max Activity,[2]; Table 8,+ (+ is <30%)
"Cc1cccc(C)c1-c1cc2nc(n1)NS(=O)(=O)c1cccc(c1)C(=O)NCC(c1ccccc1Cl)O2 (centres unmarked) [Compound 31, 10-(2-Chlorophenyl)-6-(2,6-dimethylphenyl)-2,2-dioxo-9-oxa-2λ^6-thia-3,5,12,19-tetrazatricyclo[12.3.1.14,8]nonadeca-1(18),4(19),5,7,14,16-hexaen-13-one]","ring closure, yield after HPLC","[1]; from Cc1cccc(C)c1-c1cc(OC(CN)c2ccccc2Cl)nc(NS(=O)(=O)c2cccc(C(=O)O)c2)n1, HATU/DIEA, DMF, 42.4 mM, 25.0 °C, 1.0 h",49%
same,Ent. A Max Activity,[2]; Table 8,+++ (+++ is >60%)
same,EC50,[2]; Table 8,< 1 µM
"Cc1cccc(C)c1-c1cc2nc(n1)NS(=O)(=O)c1cccc(c1)C(=O)NCC(c1ccc(OCC3(C(F)(F)F)CC3)cc1)O2 (centres unmarked) [Compound 33, 6-(2,6-Dimethylphenyl)-2,2-dioxo-10-[4-[[1-(trifluoromethyl)cyclopropyl]methoxy]phenyl]-9-oxa-2λ^6-thia-3,5,12,19-tetrazatricyclo[12.3.1.14,8]nonadeca-1(18),4(19),5,7,14,16-hexaen-13-one]","ring closure, yield after HPLC","[1]; from Cc1cccc(C)c1-c1cc(OC(CN)c2ccc(OCC3(C(F)(F)F)CC3)cc2)nc(NS(=O)(=O)c2cccc(C(=O)O)c2)n1, HATU/DIEA, DMF, 48.7 mM, 25.0 °C, 72.0 h",10%
same,Ent. A Max Activity,[2]; Table 8,+++ (+++ is >60%)
same,EC50,[2]; Table 8,< 1 µM
"Cc1cccc(COCc2ccccc2)c1-c1cc2nc(n1)NS(=O)(=O)c1cccc(c1)C(=O)N[C@H](CC(C)C)CO2 [Compound 106, (11R)-6-[2-(benzyloxymethyl)-6-methyl-phenyl]-11-isobutyl-2,2-dioxo-9-oxa-2λ^6-thia-3,5,12,19-tetrazatricyclo[12.3.1.14,8]nonadeca-1(18),4(19),5,7,14,16-hexaen-13-one]","ring closure, yield after HPLC","[1]; from Cc1cccc(COCc2ccccc2)c1-c1cc(OC[C@H](N)CC(C)C)nc(NS(=O)(=O)c2cccc(C(=O)O)c2)n1, HATU/DIEA, DMF, 48.7 mM, 25.0 °C, 0.5 h",30%
same,Ent. A Max Activity,[2]; Table 9,+++ (+++ is >60%)
same,EC50,[2]; Table 9,< 1 µM
"Cc1cccc(C)c1-c1cc2nc(n1)NS(=O)(=O)c1cccc(c1)C(=O)N[C@H](CC1CC1)CO2 [Compound 114, (11R)-11-(Cyclopropylmethyl)-6-(2,6-dimethylphenyl)-9-oxa-2λ^6-thia-3,5,12,19-tetraazatricyclo[12.3.1.14,8]nonadeca-1(17),4(19),5,7,14(18),15-hexaene-2,2,13-trione]","ring closure, yield after HPLC","[1]; from Cc1cccc(C)c1-c1cc(OC[C@H](N)CC2CC2)nc(NS(=O)(=O)c2cccc(C(=O)O)c2)n1, HATU/TEA, DMF, 18.8 mM, 17.0 h",61%
same,Ent. A Max Activity,[2]; Enteroid Assay A,+++ (+++ is >600%)
same,EC50,[2]; Enteroid Assay A,< 1 µM
"Cc1cccc(C)c1-c1cc2nc(n1)NS(=O)(=O)N1CCCC(C1)C(=O)N[C@H](CC1CCCCC1)CO2 (stereo partly drawn) [Compound 73, (11R)-11-(Cyclohexylmethyl)-6-(2,6-dimethylphenyl)-2,2-dioxo-9-oxa-2λ^6-thia-1,3,5,12,19-pentazatricyclo[12.3.1.14,8]nonadeca-4(19),5,7-trien-13-one]","ring closure, yield after HPLC","[1]; from Cc1cccc(C)c1-c1cc(OC[C@H](N)CC2CCCCC2)nc(NS(=O)(=O)N2CCCC(C(=O)O)C2)n1, HATU/DIEA, DMF, 19.2 mM, 3.0 h",19%
same,Ent. A Max Activity,[2]; Table 8,+ (+ is <30%)
"COC[C@H]1NC(=O)c2cccc(c2)S(=O)(=O)Nc2nc(cc(-c3c(C)cccc3C)n2)OC1c1ccc(C(C)(C)C)cc1 (single isomer, unassigned) [Compound 45]","ring closure, yield after HPLC","[1]; from COC[C@@H](N)[C@H](Oc1cc(-c2c(C)cccc2C)nc(NS(=O)(=O)c2cccc(C(=O)O)c2)n1)c1ccc(C(C)(C)C)cc1, HATU/DIEA, DMF, 161.6 mM, 25.0 °C, 0.5 h",8%
same,"ring closure, yield after HPLC","[1]; from COC[C@@H](N)[C@H](Oc1cc(-c2c(C)cccc2C)nc(NS(=O)(=O)c2cccc(C(=O)O)c2)n1)c1ccc(C(C)(C)C)cc1, HATU/DIEA, DMF, 162.0 mM, 0.5 h",10%
same,Ent. A Max Activity,[2]; Table 9,+++ (+++ is >60%)
same,EC50,[2]; Table 9,< 1 µM
"Cc1cccc(C)c1-c1cc2nc(n1)NS(=O)(=O)c1cccc(c1)C(=O)N[C@@H](C)[C@@H](c1ccc(C(C)(C)C)cc1)O2 [Compound 43, (10R,11S)-10-(4-tert-butylphenyl)-6-(2,6-dimethylphenyl)-11-methyl-2,2-dioxo-9-oxa-2λ^6-thia-3,5,12,19-tetrazatricyclo[12.3.1.14,8]nonadeca-1(18),4(19),5,7,14,16-hexaen-13-one]","ring closure, yield after HPLC","[1]; from Cc1cccc(C)c1-c1cc(O[C@H](c2ccc(C(C)(C)C)cc2)[C@H](C)N)nc(NS(=O)(=O)c2cccc(C(=O)O)c2)n1, HATU/NaOtBu, DMF/THF, 53.4 mM, 25.0 °C, 0.1 h, 2 steps",13%
same,Ent. A Max Activity,[2]; Table 9,+++ (+++ is >60%)
same,EC50,[2]; Table 9,< 1 µM
